This data set can be described thus: gradient 5% acetonitrile 3 min, to 50% in 2 min, to 85% in 15 min, held 3 min, 100 µL/min. To be noted: column: Zorbax Extend-C18 2.1 x 50 mm; eluents: water / acetonitrile, 0.1% formic acid. In short, it runs like this: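 Standards, all pure, were combined into mixtures of ~100 molecules and run at 100 μL/min on a Zorbax Extend-C18 column (2.1 × 50 mm, 1.8 μm) with water and acetonitrile, each containing 0.1% formic acid. A coupled quadrupole time-of-flight mass spectrometer operated in positive and negative ionization mode. Retention time values come from computationally picked adduct peaks, each inspected manually.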
`CCc1sc(NC(=O)Cc2ccc(F)cc2)nc1-c1ccccc1` came in with an RP-LC retention time of 1110 s.

As to `Cc1cc(NS(=O)(=O)c2cc(-c3ccn[nH]3)sc2C)ccc1Br`, the RP-LC retention time stood at 908 s. The same measure for `COc1ccc(C)cc1NC(=O)CN1CCN(Cc2ccccc2)C(=O)C1=O`: 684 s. With `Cc1noc(C)c1CC(=O)NCC12CCC=C1NC(=O)CC2` (stereo not given) the figure was 632 s. The same measure for `CC1=NS(=O)(=O)N(Cc2ccccc2)C=C1C(=O)OCc1ccc(C)cc1`: 1170 s; for `COc1ccc(S(=O)(=O)N2CCC(Cc3nncn3-c3ccccc3)CC2)cc1`: 775 s; for `COCCc1noc(C2Cc3ccccc3N2C(=O)NCC(=O)OC)n1` (stereo not given): 720 s. Molecule `O=C(Nc1ncnc2sccc12)C1COc2ccccc2O1` (stereo not given) gave an RP-LC retention time of 718 s.

In turn, `Cc1nc2cccnc2n1C1CCN(C(=O)Nc2ccc3c(c2)OCCO3)C1` (stereo not given) had an RP-LC retention time of 573 s.

With `CN(C)c1ccc(C(=O)Nc2cnc(N3CCOCC3)nc2)cc1`, the RP-LC retention time amounted to 729 s.

Molecule `CC(C)=CCC/C(C)=C\C(N)=O` had an RP-LC retention time of 816 s. In turn, `COc1ccc(NC(=O)C2CCN(c3nccnc3Sc3ccccc3)CC2)cc1Cl` had an RP-LC retention time of 1100 s. As to `COc1ccccc1-c1c(C(F)(F)F)oc2cc(OC(=O)C3CC3)ccc2c1=O`, the RP-LC retention time was determined as 1080 s. With `CCCn1cc(CCNS(=O)(=O)c2cc(C)c(C)cc2C)c2cccnc21` the figure was 978 s; with `Cc1nnc2ccc(-c3noc(Cc4ccccc4Cl)n3)cn12`, 852 s. For the molecule `COc1ccccc1N1CCN(C(=O)C2CCCN(c3ncnc4c3nc3n4CCCCC3)C2)CC1` (stereo not given), the RP-LC retention time came to 766 s. With `CC(=O)c1sc(NC(=O)c2ccccc2[N+](=O)[O-])nc1C` the figure was 679 s; with `Cc1ccc(NC(=O)Cc2csc3nc(-c4ccc(C)c(C)c4)cn23)cc1C`, 850 s; with `Cc1nnc(-c2cn(CC(=O)Nc3cccc(Br)c3)c3ccccc23)o1`, 893 s. With `O=C(c1ccc[nH]1)N1CCC2(CC1)N=C(c1ccc(Cl)cc1)NO2` the figure was 776 s; with `CCCCc1nc(SCC(=O)Nc2nc(-c3ccc(Br)cc3)cs2)n[nH]1`, 1050 s. With `O=C(COc1ccccc1Cl)Nc1ccc(-c2nc(-c3ccccc3)no2)cc1` the figure was 1280 s; with `Cc1cnn(CCC(=O)NC2CCN(c3ccc(=O)n(CC4CC4)n3)C2)c1` (stereo not given), 654 s; with `Cc1[nH]c(C(=O)N2CCC(CC(=O)NCCCN3CCC(N4CCCCC4)CC3)CC2)c(C)c1C`, 575 s. In the case of `Cn1c(C(=O)N2CCN(c3ccccn3)CC2)cc2c(=O)n(C)c3ccccc3c21`, the RP-LC retention time is 562 s. The same measure for `CC(C)Cc1noc(C2(F)CCN(S(=O)(=O)c3cccc(Cl)c3)CC2)n1`: 1190 s; for `CCc1ccc(NS(=O)(=O)c2c(C)sc(C)c2-c2n[nH]c(C)c2C)cc1`: 1200 s. The same measure for `CCN1c2cc(F)ccc2C(=O)NC12CCN(C(=O)c1cccc(OC)c1)CC2`: 756 s. With `CCOc1ccccc1NC(=O)Cc1csc2nc(-c3ccccc3)cn12` the figure was 894 s; with `COCCc1nncn1C1CCN(S(=O)(=O)c2ccc(Cl)c(C)c2)CC1`, 769 s. Turning to `O=C(c1cn[nH]c1)N1CCC(c2nc(CCOCC3CCCC3)no2)C1` (stereo not given), the RP-LC retention time worked out at 717 s. With `CCc1ccccc1NC(=O)N1CCC(n2cnc3ccccc3c2=O)CC1` the figure was 744 s; with `Cc1cccc(C(=O)N2CCc3nc[nH]c3C2)c1`, 569 s; with `O=C(Nc1nc(-c2cc([N+](=O)[O-])cs2)cs1)C1=COCCO1`, 829 s. With `Cc1cccc(-c2noc(-c3nn(CC(=O)NC(C)C)c4ccccc34)n2)c1` the figure was 1090 s; with `Cc1ccc(C(=O)N2CCCn3cc(-c4ccccc4)nc32)cn1`, 605 s. The same measure for `Cc1cc(C(=O)NCc2ccc3c(c2)OCO3)c2ccccc2n1`: 637 s; for `COCC(=O)Oc1c(Sc2ccc(C)cc2)c(C)nn1-c1ccccc1`: 854 s; for `O=C(NCCc1csc(-c2cccs2)n1)C1CCN(C(=O)c2ccccc2)CC1`: 740 s. With `Cc1ccc(C(=O)Nc2ccc3c(c2)Sc2ncccc2C(=O)N3C(C)C)cc1C`, the RP-LC retention time amounted to 997 s. With `CC(C)NC(=O)N1CCc2c(c(-c3nc(-c4ccccc4)no3)nn2C)C1` the figure was 820 s. Molecule `CCC(C(=O)NCCc1ccc(Cl)cc1)n1cnc2oc(C)c(C)c2c1=O` (stereo not given) had an RP-LC retention time of 924 s. `O=C(Cc1cccs1)NCCN1CCN(c2ccc(Cl)cc2)CC1` came in with an RP-LC retention time of 583 s. The same measure for `COc1cccc(NC(=O)CN2CCc3c(c(=O)c4cc(C)ccc4n3C)C2)c1`: 609 s. Regarding `CN1C(=O)C(C)(C)COc2cc(NC(=O)CCSc3ccccc3)ccc21`, the RP-LC retention time came out at 882 s. With `Cc1ccc(Nc2c(-c3cc(Br)ccc3O)nc3ncccn23)cc1Cl` the figure was 1170 s; with `OC[C@@H]1CN(Cc2ccccn2)C[C@H]1c1nc(-c2cccnc2)no1`, 551 s; with `CCOc1ccc(-c2[nH]ncc2CNS(=O)(=O)Cc2cc(F)cc(F)c2)cc1`, 845 s. The same measure for `Cn1c(=O)n(C)c2cc(S(=O)(=O)c3ccc(F)cc3)c(NC(=O)c3ccc(F)cc3)cc21`: 899 s; for `O=C(CN1CCN(Cc2ccc(F)cc2)C1=O)NCc1cc(F)cc(F)c1`: 826 s.

The molecule `CCn1c(C(=O)NCCc2c[nH]c3ccccc23)cc2c(-c3cccs3)nn(-c3ccccc3)c21` showed an RP-LC retention time of 1150 s. The same measure for `CCCNC(=O)C1CCN(c2ccc(SCC(=O)Nc3c(F)cccc3F)nn2)CC1`: 614 s. In turn, `CCn1c(=O)n(CC)c2cc(N3CCCC3)c(NC(=O)NCc3ccc(OC)cc3)cc21` came in with an RP-LC retention time of 643 s. For `COc1ccc(Cl)cc1NC(=O)Nc1ccccc1NC(=O)c1ccco1`, the RP-LC retention time stood at 873 s. The same measure for `Cc1c(C(=O)NCCCn2ncccc2=O)nnn1-c1nccs1`: 630 s. The same measure for `COc1ccc(-c2noc(Cc3nc(-c4ccc(C)cc4)cs3)n2)cc1`: 1250 s.

Molecule `CC(=O)N1CCC2(CC1)OC(=O)C(C)=C2C(=O)NCCCN1CC(C)CC(C)C1` (stereo not given) gave an RP-LC retention time of 587 s. As to `CC1CCN(C(=O)c2cccn2Cc2noc(-c3ccc(Cl)cc3)n2)CC1`, the RP-LC retention time came out at 1200 s.

`O=C(NCCOc1ccc2nnc(-c3cccc(F)c3)n2n1)c1cc(=O)c2ccccc2o1` showed an RP-LC retention time of 682 s.

Turning to `CCCCC(C)C(=O)NC1CCN(C2=NS(=O)(=O)C(c3ccc(C)c(C)c3)=C2C)CC1` (stereo not given), the RP-LC retention time came out at 987 s. The same measure for `COc1cc2nc(N3CCC(N4CCCCC4)CC3)nc(NC3CCCCCC3)c2cc1OC`: 662 s. The same measure for `O=C(Nc1ccc(F)c(Cl)c1)Nc1c(-c2ccncc2)nc2ccccn12`: 628 s; for `COCC(C)(O)CNC(=O)c1ccsc1` (stereo not given): 581 s; for `Cc1ccc(N2CCN(S(=O)(=O)c3cc4c(s3)CCN(C(=O)C3CC3)C4)CC2)cc1`: 1020 s. The same measure for `CCN(CC)CCCC(C)NC(=O)c1ccc2c(c1)C(=O)c1ccccc1C2=O` (stereo not given): 671 s; for `O=C(C1CCN(S(=O)(=O)c2ccc(-c3noc(Cc4ccc(F)cc4)n3)cc2)CC1)N1CCCC1`: 971 s; for `Nc1ccccc1-c1nc2ccncc2[nH]1`: 708 s.

On to `CCc1nc2c(NC(=O)c3ccc(C(F)(F)F)cc3)cccn2n1`, for which the RP-LC retention time came out at 957 s. For `Cc1ccc(CNC(=O)N2CCN(c3ncccc3-c3nnc(C(C)C)o3)CC2)cc1`, the RP-LC retention time is 815 s. The same measure for `COc1ccc(CCc2nc3nccc(-c4ccc(OC)c(OC)c4)n3n2)cc1`: 856 s; for `Cc1cc(C(=O)N2CCC(Oc3nc4c(Cl)cccc4s3)CC2)no1`: 956 s; for `Cc1ccc(NC(=O)Cn2cc3c(n2)CCC(C)C3)c(C)c1` (stereo not given): 987 s.

The molecule `CCc1ccc(NC(=O)C2CCN(C(=O)C3Sc4ccccc4NC3=O)CC2)cc1` (stereo not given) registered an RP-LC retention time of 760 s. With `COCCn1c(-c2cccc(OC)c2)cnc1NC(=O)Nc1cccc(Cl)c1` the figure was 714 s. The same measure for `O=C(NCCN1CCOCC1)c1nc(Nc2ccc(F)cc2)c2ccccc2n1`: 592 s. The same measure for `CCc1nc(OCC(=O)Nc2ccccc2C(=O)OC)c2ccccc2n1`: 902 s; for `COC(=O)C1=CN(c2ccccc2)c2cc(F)c(F)cc2S1(=O)=O`: 858 s. `Cc1cccc(C)c1NC(=O)Cn1nc(N2CCC(C)CC2)c2ccccc2c1=O` had an RP-LC retention time of 1240 s. `O=C(CSc1nnc2c3cc(-c4ccc(F)cc4)nn3ccn12)NCc1ccco1` yielded an RP-LC retention time of 787 s.

In turn, `Cc1cc(OCCN2CC2)c2ccccc2n1` showed an RP-LC retention time of 664 s.

The values above are taken from the METLIN SMRT retention time set (Domingo-Almenara et al. 2019).
